Assay results taken from patent publication US11028083B2, “Ethanediamine-heterocycle derivatives as inhibitors of protein arginine methyltransferases” (Board of Regents, The University of Texas System, priority 2018, dated 2021).

Legend:
[1] = target: Full-length human GST-PRMT4 (Homo sapiens (Human), UniProt Q86X55); assay: PRMT4 RapidFire Mass Spectrometry Selectivity Assay (SAH production); type: biochemical; details: Rapid fire enzyme assay; 0.5 μM SAM, 15 nM Histone H3.3; read-out: PRMT-4 IC50
Chain of Full-length human GST-PRMT4 (Q86X55 whole entry): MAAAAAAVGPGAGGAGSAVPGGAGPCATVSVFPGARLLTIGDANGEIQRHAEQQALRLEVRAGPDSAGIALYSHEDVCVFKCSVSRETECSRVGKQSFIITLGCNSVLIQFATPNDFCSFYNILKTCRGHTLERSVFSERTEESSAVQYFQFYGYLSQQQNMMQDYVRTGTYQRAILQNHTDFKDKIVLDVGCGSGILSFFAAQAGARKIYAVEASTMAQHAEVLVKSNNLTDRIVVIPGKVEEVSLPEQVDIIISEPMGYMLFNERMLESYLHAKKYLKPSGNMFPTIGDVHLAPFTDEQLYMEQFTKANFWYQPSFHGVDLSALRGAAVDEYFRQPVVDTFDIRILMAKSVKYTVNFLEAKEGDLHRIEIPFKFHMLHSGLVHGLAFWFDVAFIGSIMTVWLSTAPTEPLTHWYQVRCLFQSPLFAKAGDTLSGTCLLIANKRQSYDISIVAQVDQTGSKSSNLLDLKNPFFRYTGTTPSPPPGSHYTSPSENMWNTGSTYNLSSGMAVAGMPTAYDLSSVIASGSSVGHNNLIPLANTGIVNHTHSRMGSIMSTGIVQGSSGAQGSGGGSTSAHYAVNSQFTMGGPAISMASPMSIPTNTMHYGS
Text: Full-length human GST-PRMT4 (SignalChem, catalog#P365-380DG) was expressed by baculovirus in Sf9 insect cells.

[2] = target: PRMT1 (Homo sapiens (Human), UniProt Q99873); assay: PRMT1 Enzymatic Assay (LANCE TR-FRET, methylation of histone H4 at Arg3); type: biochemical; details: PRMT-1 Enzymatic Assay; 1 μM SAM, 25 nM biotinylated histone H4 (1-21)
Chain of PRMT1 (Q99873 whole entry): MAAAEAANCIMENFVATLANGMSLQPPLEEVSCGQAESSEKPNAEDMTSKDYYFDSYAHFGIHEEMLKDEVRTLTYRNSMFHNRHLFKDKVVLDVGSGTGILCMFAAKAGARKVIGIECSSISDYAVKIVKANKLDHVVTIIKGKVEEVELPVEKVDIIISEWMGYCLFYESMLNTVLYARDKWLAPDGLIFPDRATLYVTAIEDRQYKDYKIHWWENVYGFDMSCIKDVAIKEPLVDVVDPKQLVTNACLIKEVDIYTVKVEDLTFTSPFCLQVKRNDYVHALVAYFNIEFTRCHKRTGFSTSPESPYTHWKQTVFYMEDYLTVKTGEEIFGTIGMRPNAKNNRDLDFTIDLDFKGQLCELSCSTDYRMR
Procedure: In order to measure PRMT1 enzymatic activity the LANCE TR-FRET assay from PerkinElmer was used to follow the methylation of histone H4 at Arg3 using S-adenosyl-L-methionine (SAM) as the methyl group donor.
Final concentrations of PRMT1, SAM, and histone H4 (1-21) refer to a 10 μL volume.
Detection of methylated histone H4 (H4R3me) was achieved by combining LANCE Ultra Europium-anti-H4R3me antibody (PerkinElmer, Catalog #TRF04-14), LANCE Ultra ULight-anti-streptavidin antibody (PerkinElmer, Catalog #TRF0102), and sinefungin (Sigma, Catalog #S8559) (final concentrations 2 nM, 50 nM, and 100 μM respectively) in 1×LANCE detection buffer (PerkinElmer, Catalog #CR97-100) and adding 10 μL/well of the detection solution to the assay plate. Detection reagents were allowed to react for 1 hour at room temperature. Final concentrations in the detection solution refer to a 20 μL volume.

[3] = target: Full-length human PRMT1 (1-361) (Homo sapiens, UniProt Q99873); assay: PRMT1 RapidFire Mass Spectrometry Selectivity Assay (SAH production); type: biochemical; details: Rapid fire enzyme assay; 1 μM SAM, 50 nM histone H4 (1-21); read-out: PRMT-1 IC50
[4] = target: PRMT1 in RKO cells (Homo sapiens (Human), UniProt Q99873); assay: PRMT1 RKO Cellular Target Engagement Assay (In-Cell Western, asymmetric di-methyl arginine); type: cell-based; details: PRMT-1 Target Engagement, 48 hr compound incubation
Chain of PRMT1 in RKO cells (Q99873 whole entry): as above
Procedure: In preparation for the In-Cell Western assay, cells were harvested and resuspended in EMEM media supplemented with 10% fetal bovine serum. […] The culture plate was incubated for 24 hr at 37° C. with 5% CO2 and ambient O2. […] The primary antibody was then removed, and the plate was washed three times with 1×PBST. […] The plate was then incubated in the dark, at room temperature for 1 hour followed by three washes with 1×PBST and one wash with H2O. The IRDye secondary antibody signal (800 channel) and the CellTag signal (700 channel) were measured using a Licor Odyssey Imager, and the 800 channel signal was then normalized to the 700 channel signal. IC50 values were calculated using a four-parameter logistic curve fit using Genedata Screener software.

[5] = target: Full-length human PRMT6 (1-375) (Homo sapiens (Human), UniProt Q96LA8); assay: PRMT6 RapidFire Mass Spectrometry Selectivity Assay (SAH production); details: read-out: PRMT-6 IC50; Rapid fire enzyme assay; 3 μM SAM, 250 nM Histone H4 (36-50) K44 MeI
Chain of Full-length human PRMT6 (1-375) (Q96LA8 whole entry): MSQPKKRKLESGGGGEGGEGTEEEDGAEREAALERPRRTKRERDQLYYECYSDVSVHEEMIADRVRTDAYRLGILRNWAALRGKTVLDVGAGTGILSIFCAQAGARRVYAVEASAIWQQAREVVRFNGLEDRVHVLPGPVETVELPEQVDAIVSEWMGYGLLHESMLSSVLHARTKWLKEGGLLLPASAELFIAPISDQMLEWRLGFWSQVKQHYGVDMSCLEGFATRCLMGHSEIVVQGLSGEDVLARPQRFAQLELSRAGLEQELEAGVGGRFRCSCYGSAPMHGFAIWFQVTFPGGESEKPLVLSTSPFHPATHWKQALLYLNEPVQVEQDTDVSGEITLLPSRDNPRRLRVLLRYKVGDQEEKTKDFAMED
Procedure: The PRMT6 assay was performed by dispensing 6 uL/well (final concentration of 10 nM) of PRMT6 protein diluted in assay buffer to the plate. Stock solutions of the test compounds were prepared in 100% DMSO (Sigma, Catalog #D2650) and serially diluted 1:3 using 100% DMSO. Compounds were additionally diluted 1:50 in assay buffer, and 6 μL/well were transferred to the assay plate. Plates were allowed to incubate for 15 min at room temperature.
RapidFire buffer A contained H2O and buffer B was 80% acetonitrile/H2O. […] SAH peaks were integrated using RapidFire peak software and IC50 values were calculated using a four-parameter logistic curve fit using Genedata Screener software.

SMILES	IC50 [1] [µM]	IC50 [2] [µM]	also measured
CNCCN(C)Cc1nn2c(c1C1CCCCC1)CCC2 [Example 11, N^1-((3-cyclohexyl-5,6-dihydro-4H-pyrrolo[1,2-b]pyrazol-2-yl)methyl)-N^1,N^2-dimethylethane-1,2-diamine]	0.654	0.044	IC50 [3]: 0.093 µM; IC50 [4]: 14 µM; IC50 [5]: 0.099 µM
CNCCN(C)Cc1nn2c(c1C1CCCCC1)CCCC2 [Example 21, N^1-((3-cyclohexyl-4,5,6,7-tetrahydropyrazolo[1,5-a]pyridin-2-yl)methyl)-N^1,N^2-dimethylethane-1,2-diamine]	1.12		
CNCCN(C)Cc1nn2c(c1C1CCC(C)(C)CC1)CCC2 [Example 51, N^1-((3-(4,4-dimethylcyclohexyl)-5,6-dihydro-4H-pyrrolo[1,2-b]pyrazol-2-yl)methyl)-N^1,N^2-dimethylethane-1,2-diamine]	0.337		
CCOCC1(COCC)CCC(c2c(CNCCN)nn3c2CC(F)(F)C3)CC1 [Example 92, N^1-((3-(4,4-bis(ethoxymethyl)cyclohexyl)-5,5-difluoro-5,6-dihydro-4H-pyrrolo[1,2-b]pyrazol-2-yl)methyl)ethane-1,2-diamine]		0.073	

Continued by falling IC50 [1], values first:

IC50 [1] [µM]	IC50 [2] [µM]	SMILES	also measured
0.114		CNCCN(C)Cc1nn2c(c1C1CCC3(CCCC3)CC1)CCC2 [Example 49, N^1,N^2-dimethyl-N^1-((3-(spiro[4.5]decan-8-yl)-5,6-dihydro-4H-pyrrolo[1,2-b]pyrazol-2-yl)methyl)ethane-1,2-diamine]	
0.079		CCOCC1(COCC)CCC(c2c(CN(C)CCNC)nn3c2CCC3)CC1 [Example 2, N^1-((3-(4,4-bis(ethoxymethyl)cyclohexyl)-5,6-dihydro-4H-pyrrolo[1,2-b]pyrazol-2-yl)methyl)-N^1, N^2-dimethylethane-1,2-diamine]	
